Results reported in US20230087118A1, “IMIDAZO[1,2-a][sequence] DERIVATIVES AND THEIR USE IN THE TREATMENT OF DISEASE” (priority 2019, published 2023).
Counter-ions that a name gives are not always drawn.

Each compound was assayed against T1, IRAK4 (Homo sapiens, UniProt Q9NWZ3) (assay: biochemical). Details: not given.
T1 sequence (Q9NWZ3 1-460): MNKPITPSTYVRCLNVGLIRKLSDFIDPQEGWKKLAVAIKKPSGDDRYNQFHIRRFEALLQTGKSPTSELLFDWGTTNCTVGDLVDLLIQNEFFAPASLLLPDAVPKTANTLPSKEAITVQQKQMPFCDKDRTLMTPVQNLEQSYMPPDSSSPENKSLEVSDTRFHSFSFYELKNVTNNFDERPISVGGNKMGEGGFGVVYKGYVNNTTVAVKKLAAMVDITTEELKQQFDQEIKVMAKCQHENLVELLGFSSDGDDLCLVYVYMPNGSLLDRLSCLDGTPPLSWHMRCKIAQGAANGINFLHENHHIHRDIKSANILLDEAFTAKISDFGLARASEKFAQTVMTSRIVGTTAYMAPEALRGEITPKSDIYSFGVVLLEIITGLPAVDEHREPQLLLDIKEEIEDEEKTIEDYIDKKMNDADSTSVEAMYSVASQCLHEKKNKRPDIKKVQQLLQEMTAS

Row | SMILES | IC50
1 | COc1ncccc1NC(=O)c1cn2cc(C34COC(C)(C3)C4)nc2c(C)c1OC [Example 291, 7-Methoxy-N-(2-methoxypyridin-3-yl)-8-methyl-2-(1-methyl-2-oxabicyclo[2.1.1]hexan-4-yl)imidazo[1,2-a]pyridine-6-carboxamide] | 0.0125 µM
2 | CC(C)Oc1cc2nc(C34CCC(C)(C3)OC4)cn2cc1C(=O)Nc1cccc(C(F)(F)F)c1F (stereo not drawn) [Example 502, N-(2-fluoro-3-(trifluoromethyl)phenyl)-7-isopropoxy-2-(1-methyl-2-oxabicyclo[2.2.1]heptan-4-yl)imidazo[1,2-a]pyridine-6-carboxamide] | 0.0004 µM
3 | CCn1ccc(NC(=O)c2cn3cc(C45CCC(C)(C4)OC5)nc3cc2OC(C)C)n1 (stereo not drawn) [Example 508, N-(1-ethyl-1H-pyrazol-3-yl)-7-isopropoxy-2-(1-methyl-2-oxabicyclo[2.2.1]heptan-4-yl)imidazo[1,2-a]pyridine-6-carboxamide] | 0.0023 µM
4 | COc1ncccc1NC(=O)c1cn2cc([C@]34CC[C@](C)(C3)OC4)nc2c(OC)n1 (single isomer, unassigned) [Example 586] | 0.002 µM
5 | Cc1cnc2c(NC(=O)c3cn4cc(C56COC(C5)C6)nc4nc3OC(C)C)cnn2c1 [Example 432] | 0.0006 µM
6 | COc1ncccc1NC(=O)c1cn2cc(C34COC(C)(C3)C4)nc2c(OC)n1 [Example 232] | 0.0031 µM
7 | CC(C)Oc1cc2nc(C34COC(C)(C3)C4)cn2cc1C(=O)Nc1ccccn1 [Example 219] | 0.0069 µM
8 | CCOc1nc(C(=O)Nc2cccc(F)c2OC)cn2cc(C34COC(C)(C3)C4)nc12 [Example 487, 8-Ethoxy-N-(3-fluoro-2-methoxyphenyl)-2-(1-methyl-2-oxabicyclo[2.1.1]hexan-4-yl)imidazo[1,2-a]pyrazine-6-carboxamide] | 0.0027 µM
9 | CC(C)Oc1nc(C(=O)Nc2cccc(C(F)F)n2)cn2cc(C34COC(C)(C3)C4)nc12 [Example 336, N-(6-(difluoromethyl)pyridin-2-yl)-8-isopropoxy-2-(1-methyl-2-oxabicyclo[2.1.1]hexan-4-yl)imidazo[1,2-a]pyrazine-6-carboxamide] | 0.0021 µM
10 | CC(C)Oc1nc2nc(C34CCC(C)(CC3)CO4)cn2cc1C(=O)Nc1ccn(C)n1 [Example 566, 7-Isopropoxy-N-(1-methyl-1H-pyrazol-3-yl)-2-(4-methyl-2-oxabicyclo[2.2.2]octan-1-yl)imidazo[1,2-a]pyrimidine-6-carboxamide] | 0.0009 µM
11 | CC12CC(c3cn4cc(C(=O)Nc5ccn(CC(F)F)n5)c(OC5CCC5)cc4n3)(CO1)C2 [Example 530, 7-Cyclobutoxy-N-(1-(2,2-difluoroethyl)-1H-pyrazol-3-yl)-2-(1-methyl-2-oxabicyclo[2.1.1]hexan-4-yl)imidazo[1,2-a]pyridine-6-carboxamide] | 0.0056 µM
12 | Cn1cc(-c2cccc(NC(=O)c3cn4cc(C56CCC(C)(C5)OC6)nc4cc3OC3CCC3)n2)cn1 (stereo not drawn) [Example 542, 7-Cyclobutoxy-N-(6-(1-methyl-1H-pyrazol-4-yl)pyridin-2-yl)-2-(1-methyl-2-oxabicyclo[2.2.1]heptan-4-yl)imidazo[1,2-a]pyridine-6-carboxamide] | 0.0001 µM
13 | COc1ncccc1NC(=O)c1cn2cc(C34COC(C)(C3)C4)nc2c(OC(C)C)n1 [Example 337, 8-Isopropoxy-N-(2-methoxypyridin-3-yl)-2-(1-methyl-2-oxabicyclo[2.1.1]hexan-4-yl)imidazo[1,2-a]pyrazine-6-carboxamide] | 0.0004 µM
14 | CC(C)Oc1nc2nc(C34COC(C)(C3)C4)cn2cc1C(=O)Nc1ccn(C(F)F)n1 [Example 361, N-(1-(difluoromethyl)-1H-pyrazol-3-yl)-7-isopropoxy-2-(1-methyl-2-oxabicyclo[2.1.1]hexan-4-yl)imidazo[1,2-a]pyrimidine-6-carboxamide] | 0.0037 µM
15 | CC(C)Oc1cc2nc(C34COC(C)(C3)C4)cn2cc1C(=O)Nc1cccnc1OC(F)F [Example 222] | 0.0081 µM
16 | CC(C)Oc1nc(C(=O)Nc2cccn(C)c2=O)cn2cc(C34CCC(C)(CC3)OC4)nc12 [Example 427, 8-Isopropoxy-N-(1-methyl-2-oxo-1,2-dihydropyridin-3-yl)-2-(1-methyl-2-oxabicyclo[2.2.2]octan-4-yl)imidazo[1,2-a]pyrazine-6-carboxamide] | 0.0007 µM

Row | SMILES | IC50
17 | CC(C)Oc1cc2nc([C@]34CC[C@H](C3)OC4)cn2cc1C(=O)Nc1cccc(C(F)F)n1 (single isomer, unassigned) [Example 591] | 0.0001 µM
18 | CC1(C)CC(Oc2cc3nc(C4CC4)cn3cc2C(=O)Nc2cccc(C(F)F)n2)C1 [Example 472, 2-Cyclopropyl-N-(6-(difluoromethyl)pyridin-2-yl)-7-(3,3-dimethylcyclobutoxy)imidazo[1,2-a]pyridine-6-carboxamide] | 0.0064 µM
19 | CCOc1nc(C(=O)Nc2cccc(C(F)F)n2)cn2cc(C34COC(C)(C3)C4)nc12 [Example 226] | 0.0024 µM
20 | CCOc1nc(C(=O)Nc2cccc(C(F)(F)F)c2)cn2cc(C34COC(C)(C3)C4)nc12 [Example 497, 8-Ethoxy-2-(1-methyl-2-oxabicyclo[2.1.1]hexan-4-yl)-N-(3-(trifluoromethyl)phenyl)imidazo[1,2-a]pyrazine-6-carboxamide] | 0.007 µM
21 | COc1cc2nc(C3CCOCC3)cn2cc1C(=O)Nc1cccn(CC(F)(F)F)c1=O [Example 198] | 0.0759 µM
22 | CC(C)Oc1cc2nc([C@]34CC[C@H](C3)OC4)cn2cc1C(=O)Nc1cnn2cccnc12 (single isomer, unassigned) [Example 583] | 0.0008 µM
23 | CCOc1cc2nc(C(F)F)cn2cc1C(=O)Nc1cccc(C(F)F)n1 [Example 95, 2-(Difluoromethyl)-N-(6-(difluoromethyl)pyridin-2-yl)-7-ethoxyimidazo[1,2-a]pyridine-6-carboxamide] | 0.0005 µM
24 | COc1cccc(NC(=O)c2cn3cc(C(C)(F)F)nc3cc2OC(C)C)n1 [Example 101] | 0.0175 µM
25 | CCOc1nc(C(=O)Nc2cccc(C(F)F)n2)cn2cc(C3CCCOC3)nc12 (stereo not drawn) [Example 223] | 0.0022 µM
26 | CC(C)Oc1nc2nc(C34COC(C)(C3)C4)cn2cc1C(=O)Nc1cccc2scnc12 [Example 378, N-(benzo[d]thiazol-4-yl)-7-isopropoxy-2-(1-methyl-2-oxabicyclo[2.1.1]hexan-4-yl)imidazo[1,2-a]pyrimidine-6-carboxamide] | 0.0002 µM
27 | CC(C)Oc1cc2nc(C34COC(C)(C3)C4)cn2cc1C(=O)Nc1cnn2cc(C3CC3)cnc12 [Example 322, N-(6-cyclopropylpyrazolo[1,5-a]pyrimidin-3-yl)-7-isopropoxy-2-(1-methyl-2-oxabicyclo[2.1.1]hexan-4-yl)imidazo[1,2-a]pyridine-6-carboxamide] | 0.0019 µM
28 | CC(C)Oc1nc2nc(C34CCC(C)(C3)OC4)cn2cc1C(=O)Nc1cccc(C(F)F)n1 (stereo not drawn) [Example 247] | 0.0002 µM
29 | CCc1ncsc1NC(=O)c1cn2cc(C3CCOCC3)nc2cc1OC [Example 104] | 0.0476 µM
30 | COc1cccc(NC(=O)c2cn3cc(C45COC(C)(C4)C5)nc3cc2OC)n1 [Example 31] | 0.015 µM
31 | CC(C)Oc1nc2nc(C34COC(C)(C3)C4)cn2cc1C(=O)Nc1cccc(OC(F)(F)F)n1 [Example 412, 7-Isopropoxy-2-(1-methyl-2-oxabicyclo[2.1.1]hexan-4-yl)-N-(6-(trifluoromethoxy)pyridin-2-yl)imidazo[1,2-a]pyrimidine-6-carboxamide] | 0.0012 µM

Same assay, conditions: IRAK4 Biochemical Assay (1 mM ATP, 2 h) IC50 (μM), 1 mM ATP, 2 h, 100 pM IRAK4

Row | SMILES | IC50
32 | COc1cc2nc(C3CCOCC3)cn2cc1C(=O)Nc1cc(F)cn(C)c1=O [Example 212, N-(5-fluoro-1-methyl-2-oxo-1,2-dihydropyridin-3-yl)-7-methoxy-2-(tetrahydro-2H-pyran-4-yl)imidazo[1,2-a]pyridine-6-carboxamide trifluoroacetate] | 0.016 µM
33 | COc1cccc(NC(=O)c2cn3cc(C45CC(C)(C4)OC54COC4)nc3cc2OC)n1 [Example 28] | 0.0969 µM
34 | CC(C)Oc1nc2nc(C34COC(C)(C3)C4)cn2cc1C(=O)Nc1cccc(N(C)C)n1 [Example 357, N-(6-(dimethylamino)pyridin-2-yl)-7-isopropoxy-2-(1-methyl-2-oxabicyclo[2.1.1]hexan-4-yl)imidazo[1,2-a]pyrimidine-6-carboxamide trifluoroacetate] | 0.0003 µM
35 | CCc1cccc(NC(=O)c2cn3cc(C4CC5(CCOC5)C4)nc3cc2OC)n1 (stereo not drawn) [Example 62] | 0.0038 µM
36 | CC(C)Oc1nc2nc(C34CCC(C)(CC3)OC4)cn2cc1C(=O)Nc1cccc(C(F)F)n1 [Example 383, N-(6-(difluoromethyl)pyridin-2-yl)-7-isopropoxy-2-(1-methyl-2-oxabicyclo[2.2.2]octan-4-yl)imidazo[1,2-a]pyrimidine-6-carboxamide] | 0.0001 µM
37 | COc1nc(C(=O)Nc2cccc(C(F)F)n2)cn2cc(C3CCOCC3)nc12 [Example 206, N-[6-(difluoromethyl)-2-pyridyl]-8-methoxy-2-tetrahydropyran-4-ylimidazo[1,2-a]pyrazine-6-carboxamide trifluoroacetate] | 0.0128 µM
38 | CC(C)Oc1cc2nc(C34CCC(C)(C3)OC4)cn2cc1C(=O)Nc1ccn(C(F)F)n1 (stereo not drawn) [Example 504, N-(1-(difluoromethyl)-1H-pyrazol-3-yl)-7-isopropoxy-2-(1-methyl-2-oxabicyclo[2.2.1]heptan-4-yl)imidazo[1,2-a]pyridine-6-carboxamide] | 0.0018 µM
39 | Cc1cnc2c(NC(=O)c3cn4cc(C5CC5)nc4cc3OC(C)C)cnn2c1 [Example 280, 2-Cyclopropyl-7-isopropoxy-N-(6-methylpyrazolo[1,5-a]pyrimidin-3-yl)imidazo[1,2-a]pyridine-6-carboxamide trifluoroacetate] | 0.0019 µM
